For one data set, the system named is MRC-5SV2 cells. Kind of data set: Cytotoxicity assay on MRC-5SV2 cells (resazurin). On the technique in general: Alamar Blue is a resazurin reagent that responds to reducing activity.
For data set [1], the system named is Leishmania infantum MHOM/MA(BE)/67/ITMAP263 intracellular amastigotes. Particulars: for IC50: read-out: L. infantum MHOM/MA(BE)/67/ITMAP263 intracellular amastigotes IC50.
The test system of data set [2] is L. donovani MHOM/ET/67/L82 intracellular amastigotes. Particulars: read-out: L. donovani MHOM/ET/67/L82 intracellular amastigotes IC50.
Data set [3] has as its system primary peritoneal mouse macrophages (PMM). Particulars: for IC50: read-out: PMM IC50.
Data set [4] is described as follows: in vitro. Particulars: Swiss, mouse.
Data set [5] is described as follows: in vitro. The settings on record: human.
Data set [6] relates to Trypanosoma cruzi, Tulahuen CL2, beta-galactosidase strain. The data set can be described thus: microbe, parasite or virus in culture. Particulars: MRC5, read-out: T. cruzi Tulahuen C4 (LacZ) IC50.
Data set [7] has as its system Leishmania infantum MHOM/MA(BE)/67/ITMAP263 intracellular amastigotes. Kind of data set: microbe, parasite or virus in culture. The settings on record: Macrophage, in Mus musculus.
Data set [8] is described as follows: in vitro. Particulars: human, microsomes, pH 7.4, HLM CLint, human liver microsomes. A general note: Microsomes from liver hold many membrane-bound enzymes, among them those of drug oxidation.
The nature of data set [9]: in vitro. Particulars: mouse, microsomes, pH 7.4, MLM CLint, mouse liver microsomes.
Setting [10] is: read-out: L. Inf. pIC50, from L. infantum intracellular amastigote IC50 (converted).
[11] abbreviates: read-out: L. infantum MHOM/MA(BE)/67/ITMAP263 intracellular amastigotes IC50.

Consider 32 compounds from paper PMC8126888 (RSC Medicinal Chemistry, 2020).

Where two headings read alike, the source gives them in different places. Where only a bound is given, the exact number is not on record here.

By microsomal CLint is commonly meant the rate of metabolic loss divided by the concentration. The low end stands for greater metabolic stability, the high end for faster metabolism.

For `CCOC(=O)c1c(C)[nH]c(C(=O)Nc2cccc(S(=O)(=O)N3CCOCC3)c2)c1C` [Compound Z30001211], the CC50 in the data set on MRC-5SV2 cells came out at 18.1 µM. Further, the IC50 in data set [1], in [2] and in data set [3] was over 32 µM in each case.

In the case of `COC(=O)c1c(C)[nH]c(C(=O)Nc2cccc(S(=O)(=O)N3CCCC3)c2)c1C` [Compound Z30224758], in the data set with MRC-5SV2 cells, the CC50 is over 32 µM. Further, the IC50 in data set [1], in [2] and in data set [3] was over 32 µM each time.

In the data set on MRC-5SV2 cells, `CCOC(=O)c1c(C)[nH]c(C(=O)Nc2ccc(Cl)c(S(=O)(=O)N3CCCCC3)c2)c1C` [Compound Z30461235] yielded a CC50 of 2.17 µM. The “L. Inf. pIC50” value in data set [1] was determined as 5.52. The IC50 in [1] was determined as 2.99 µM; in data set [2], 3.39 µM; in data set [3] it was 16 µM.

As for `CCOC(=O)c1c(C)[nH]c(C(=O)NNC(=O)c2cccc(S(=O)(=O)N(CC)CC)c2)c1C` [Compound Z30581529], the CC50 with MRC-5SV2 cells was over 32 µM. Also, the IC50 in data set [1], in data set [2] and in data set [3] was over 32 µM in each case.

Compound `CC1Cc2ccccc2N1CC(=O)Nc1ccc(Cl)c(S(=O)(=O)N(C)C)c1` (stereo not shown) [Compound Z30956600] showed a CC50 with MRC-5SV2 cells of over 32 µM. Further, the IC50 in [1], in [2] and in data set [3] was over 32 µM throughout.

In the case of `CN(C)S(=O)(=O)c1cccc(NC(=O)CNc2cccc3c2CCCC3)c1` [Compound Z30985744], the CC50 in the data set with MRC-5SV2 cells is over 32 µM. For the same compound, the IC50 in data set [1], in data set [2] and in [3] was over 32 µM in each case.

In the data set on MRC-5SV2 cells, `CN(Cc1ccccc1NCC(=O)Nc1cccc(S(=O)(=O)N(C)C)c1)C1CCCCC1` [Compound Z31013342] yielded a CC50 of over 32 µM. Moreover, the “L. Inf. pIC50” value in data set [1] amounted to 4.67. Further, the IC50 is 21.5 µM in data set [1], over 32 µM in data set [2] and over 32 µM in data set [3].

`O=S(=O)(NCc1cccs1)c1ccc2c(c1)CCCC2` [Compound Z45423905] returned a CC50 in the data set on MRC-5SV2 cells of 27.1 µM. Besides, the IC50 in data set [1], in data set [2] and in [3] was over 32 µM in each case.

As to `COc1ccccc1S(=O)(=O)N(Cc1ccccc1)Cc1ccccc1` [Compound Z45508946], the CC50 with MRC-5SV2 cells was over 32 µM. Also, the “L. Inf. pIC50” value in data set [1] was 6.47. In addition, the IC50 in data set [1] was 0.34 µM; in [2] it was 1.59 µM; in data set [3], over 32 µM.

In turn, `COc1ccc(OC)c(S(=O)(=O)N(Cc2ccccc2)Cc2ccccc2)c1` [Compound Z45508995] gave a CC50 in the data set on MRC-5SV2 cells of 6.41 µM. Moreover, the “L. Inf. pIC50” value in [1] worked out at 6. The IC50 was 1.01 µM in data set [1], 1.19 µM in data set [2] and over 32 µM in data set [3].

As for `CC1CCc2ccccc2N1CC(=O)Nc1ccc(Cl)c(S(=O)(=O)N(C)C)c1` (stereo not shown) [Compound Z46500410], the CC50 in the data set with MRC-5SV2 cells is over 32 µM. Besides, the IC50 in data set [1], in data set [2] and in data set [3] was over 32 µM in each case.

Turning to `Cc1ccc(NC(=O)c2[nH]c(C)c(C(=O)OC(C)C)c2C)cc1S(=O)(=O)N1CCCCC1` [Compound Z51733284], in the data set with MRC-5SV2 cells, the CC50 was 3.11 µM. Further, in data set [1], the “L. Inf. pIC50” value amounted to 4.99. Also, the IC50 in data set [1] is 10.2 µM; in data set [2], 16.2 µM; in data set [3], 16 µM.

`CCCCNS(=O)(=O)c1cccc(NC(=O)c2cnc(C)cn2)c1` [Compound Z88583029]: in the data set with MRC-5SV2 cells, the CC50 is over 32 µM. In addition, the IC50 in data set [1], in [2] and in data set [3] was over 32 µM in each case.

In the data set with MRC-5SV2 cells, `CCCCNS(=O)(=O)c1cccc(NC(=O)c2cc3ccccc3[nH]2)c1` [Compound Z88584859] gave a CC50 of over 32 µM. In addition, in [1], the “L. Inf. pIC50” value worked out at 4.79. The IC50 in data set [1] was 16.2 µM; in [2] it was 25.4 µM; in [3], over 32 µM.

Consider `CCCCNS(=O)(=O)c1cccc(NC(=O)c2cc(C)c(C)s2)c1` [Compound Z88584860], for which, in the data set with MRC-5SV2 cells, the CC50 was over 32 µM. In addition, the IC50 in data set [1], in data set [2] and in data set [3] was over 32 µM each time.

In the case of `CCCCNS(=O)(=O)c1cccc(NC(=O)c2ccc(C)c(OC)c2)c1` [Compound Z109591588], the CC50 with MRC-5SV2 cells is over 32 µM. Further, the IC50 in data set [1], in [2] and in data set [3] was over 32 µM in each case.

`COC(=O)c1c(C)[nH]c(C(=O)Nc2cccc(S(C)(=O)=O)c2)c1C` [Compound Z109929482] returned a CC50 with MRC-5SV2 cells of over 32 µM. Further, the IC50 in [1], in data set [2] and in data set [3] was over 32 µM throughout.

The compound `CC1CCc2ccccc2N1CC(=O)N1CCCc2cc(S(=O)(=O)N(C)C)ccc21` (stereo not shown) [Compound Z195652240] yielded a CC50 with MRC-5SV2 cells of over 32 µM. The IC50 in [1], in [2] and in data set [3] was over 32 µM each time.

`COc1ccc(S(=O)(=O)N(Cc2cccc(F)c2)Cc2cccc(F)c2)cc1OC` [Compound Z220633200] had a CC50 in the data set on MRC-5SV2 cells of over 32 µM. Besides, in data set [1], the “L. Inf. pIC50” value is listed as 4.99. Besides, the IC50 in [1] is 10.1 µM; in data set [2] it was 25.4 µM; in data set [3], over 32 µM.

Compound `COc1ccc(S(=O)(=O)N(Cc2ccccc2C#N)Cc2ccccc2C#N)cc1OC` [Compound Z220633250] showed a CC50 with MRC-5SV2 cells of over 32 µM. For the same compound, the “L. Inf. pIC50” value in data set [1] came to 5.32. For the same compound, the IC50 is 4.76 µM in data set [1], over 32 µM in data set [2] and over 32 µM in data set [3].

`COc1ccc(S(=O)(=O)N(C)C)cc1NC(=O)C1CCCc2ccccc21` (stereo not shown) [Compound Z300980532] yielded a CC50 with MRC-5SV2 cells of over 32 µM. Further, the IC50 in data set [1], in data set [2] and in data set [3] was over 32 µM in each case.

As to `CN(C)S(=O)(=O)c1cccc(NC(=O)CN2CCCc3cc(F)cc(F)c32)c1` [Compound Z369155588], the CC50 in the data set with MRC-5SV2 cells was over 32 µM. Also, the IC50 in [1], in data set [2] and in data set [3] was over 32 µM throughout.

Regarding `CNC(=O)NC(=O)COc1ccc(S(N)(=O)=O)cc1` [Compound Z381095182], the CC50 with MRC-5SV2 cells was over 32 µM. Moreover, the IC50 in data set [1], in data set [2] and in data set [3] was over 32 µM in each case.

In the case of `COC(=O)c1cccc(C(=O)Nc2cccc(S(=O)(=O)N3CCCC3)c2)n1` [Compound Z441654950], the CC50 in the data set on MRC-5SV2 cells is over 32 µM. For the same compound, the IC50 in data set [1], in [2] and in data set [3] was over 32 µM throughout.

In the case of `Fc1cccc(Cl)c1CNc1ccccc1-n1cccn1` [Compound Z739504072], in the data set on MRC-5SV2 cells, the CC50 is over 32 µM. The IC50 in [1], in data set [2] and in data set [3] was over 32 µM in each case.

Regarding `CCc1c(C(=O)Nc2cc(S(=O)(=O)NC)ccc2C)[nH]c(C)c1C(C)=O` [Compound Z792473370], the CC50 in the data set with MRC-5SV2 cells is over 32 µM. The “L. Inf. pIC50” value in [1] is listed as 4.67. Also, the IC50 was 21.5 µM in data set [1], over 32 µM in [2] and over 32 µM in data set [3].

In turn, `CCCc1c(C(=O)Nc2cccc(S(=O)(=O)NCc3ccco3)c2)[nH]c(C)c1C(C)=O` [Compound Z966334826] came in with a CC50 in the data set on MRC-5SV2 cells of 12.8 µM. In addition, in [1], the “L. Inf. pIC50” value worked out at 4.84. Further, the IC50 was 14.5 µM in [1], over 32 µM in data set [2] and over 32 µM in data set [3].

`Cc1ccc(NC(=O)CN(CC(C)C)c2cccc(O)c2)cc1S(=O)(=O)N(C)C` [Compound Z1317978681] returned a CC50 with MRC-5SV2 cells of 28.4 µM. Moreover, in data set [1], the “L. Inf. pIC50” value is recorded as 4.79. In addition, the IC50 in data set [1] is 16.1 µM; in [2], 19 µM; in data set [3] it was over 32 µM.

In turn, `Cc1ccc(NC(=O)CN2CCCCc3ccccc32)cc1S(=O)(=O)N1CCOCC1` [Compound Z1318043362] displayed a CC50 with MRC-5SV2 cells of over 32 µM. For the same compound, in data set [1], the “L. Inf. pIC50” value is on record as 4.78. The results for the IC50 in [1], in data set [2] and in [3] were 16.6 µM, 25.4 µM and 16 µM, respectively.

Take `Cc1cc(C)c(C#N)c(SCSc2nc(C)cc(C)c2C#N)n1` [DNDI0003297456]: the IC50 (in the data set “in vitro [4]”; in data set [6]; in data set [7] (setting [10]); in [7] (setting [11])) was over 64 µM in each case. In “in vitro [5]”, this compound had a CC50 at 3 days of over 64 µM. In data set [3] (PMM IC50 / L. infantum IC50), the “SI (vs PMM)” value is reported as 1.

Turning to `COc1ccc(Cl)cc1S(=O)(=O)N(Cc1ccccc1)Cc1ccccc1` [DNDI0003366072], the microsomal CLint at 0.5 μM worked out at 407 µL/min/mg in the data set “in vitro [8]” and 1350 µL/min/mg in the data set “in vitro [9]”. Moreover, the IC50 in “in vitro [4]” is over 64 µM; in [6] it was 8.16 µM; in data set [7] (setting [10]), 1.38 µM; in data set [7] (setting [11]), 1.37 µM. For the same compound, in “in vitro [5]”, the CC50 at 3 days was over 64 µM.

On to `CC/C(=C(\c1ccccc1)c1ccc(OCCN(C)C)cc1)c1ccccc1` [Tamoxifen, reference compound], for which the CC50 at 5 days in “in vitro [4]” lay within 5 to 10 µM.
